Where two headings read alike, the source gives them in different places. Each block holds one compound with its values, some of them ahead of it.
Legend:
[1] = Rat liver microsomes stability test; format: in vitro ADME; conditions: for Remaining percentage: rat liver microsomes, average value
Protocol: Firstly, preheated 0.1 M potassium phosphate buffer with 5 mM MgCl2 (i.e. K/Mg buffer) at pH 7.4±0.1. Prepared the spiked solution for the tested compound and reference compound (500 μM spiked solution: added 5 μL of 10 mM stock solution into 95 μL of acetonitrile; 1.5 μM microsomal spiked solution (0.75 mg/mL): added 1.5 μL of 500 μM spiked solution and 18.75 μL of 20 mg/mL liver microsomes into 479.75 μL of K/Mg buffer). Then NADPH was dissolved in buffer K to prepare a 6 mM, 5 mg/mL NADPH stock solution. At different time points (0-, 5-, 15-, 30-, 45 minutes), 30 μL of 1.5 μM spiked solution containing 0.75 mg/mL of microsome solution was distributed onto the designated detection plate. At 0 min, 150 μL of acetonitrile containing internal standard (IS) was added to the 0 min plate well, followed by 15 μL of NADPH stock solution (6 mM). Then, all plates were pre-incubated at 37° C. for 5 minutes, added 15 μL of NADPH stock solution (6 mM), the reaction was initiated and timed. At 5 minutes, 15 minutes, 30 minutes, and 45 minutes, added 150 μL of acetonitrile solution containing IS to the corresponding wells to stop the reaction. After quenching, the plate was shaken for 10 minutes (600 rpm/min), followed by centrifugation at 6000 rpm/min for 15 minutes. 80 μL of supernatant of each well were transferred into a 96-well sample plate containing 140 μL of ultrapure water to perform LC/MS analysis. The analysis of biological samples and all samples were completed by the analysis laboratory of Medicipia Pharmaceutical Technology (Shanghai) Co., Ltd.

[2] = test system: human T lymphoblastic lymphoma cell line Jurkat; assay: CCK-8 in vitro proliferation inhibition; format: cell-based; conditions: 72 hours, read-out: Inhibitory activity (IC50) on cell proliferation, JURKAT
Protocol: (§1) Cell lines: human chronic myeloid leukemia cell line K562, human acute myeloid leukemia cell line U937, human T lymphocyte leukemia cell line HuT78, and human T lymphoblastic lymphoma cell line Jurkat. Cells were purchased from the Chinese Academy of Sciences Stem Cell Bank or ATCC.
(§2) […] were cultured overnight and suspended cells were directly stimulated with drugs. […] Two repeats were set for each concentration, with a final volume of 200 μL. […] The absorbance values at 450 nm and 650 nm were measured using a microplate reader, and the increment Z (A450-A650) was derived. The inhibitory rate of drugs on cell growth was calculated by GraphPad Prism 8.0.0 through the following formula:
(§3) Inhibition rate (%)(ODcontrol−ODdosing)/ODcontrol×100%
(§4) The half inhibitory concentration (IC50) was calculated. Every experiment was repeated at least three times.

[3] = test system: human T lymphocyte leukemia cell line HuT78; assay: CCK-8 in vitro proliferation inhibition; format: cell-based; conditions: read-out: Inhibitory activity (IC50) on cell proliferation, HUT78
Protocol: as §1, §2, §3, §4

[4] = test system: human acute myeloid leukemia cell line U937; assay: CCK-8 in vitro proliferation inhibition; format: cell-based; conditions: read-out: Inhibitory activity (IC50) on cell proliferation, U937
Protocol: as §1, §2, §3, §4

[5] = test system: human chronic myeloid leukemia cell line K562; assay: CCK-8 in vitro proliferation inhibition; format: cell-based; conditions: read-out: Inhibitory activity (IC50) on cell proliferation, K562
Protocol: as §1, §2, §3, §4

[6] = test system: other subtypes (JAK family); conditions: 1 mM ATP concentration; read-out: IC50 of the kinase, other subtypes; cited from earlier work
JAK1 = JAK1 (Homo sapiens (Human), UniProt P23458); assay: Z′-Lyte kinase inhibitory activity test; format: biochemical; conditions: ATP concentration Km
Protocol: (§5) Test method: Firstly, test compounds were prepared into 10 mM stock solution with DMSO, and continuously diluted into 10 concentrations at a 3-fold gradient for later use. 5X reaction buffer was diluted with deionized water into 1×reaction buffer (50 mM HEPES pH 7.5, 0.01% Brij-35, 10 mM MgCl2, 1 mM EGTA), which was used to prepare a mixture of kinase and peptide substrate, as well as a phosphorylated peptide substrate solution. The kinase concentration was determined based on enzyme titration, and the final concentration of peptide substrate and phosphorylated peptide substrate was 2 μM. 5 μL of mixture substrate of kinase and peptide substrate was added to each well on the 384 well plate. Then 5 nL of the test compound (starting with a final concentration of 10 μM) was added with an Echo520 Sampler. […] An additional 100% phosphorylation well (5 μL phosphorylated peptide substrate solution), a 0% phosphorylated well (5 μL of a mixture of kinase and peptide substrate, without test compounds and ATP), and a 0% inhibitory well (5 μL of a mixture of kinase and peptide substrate and appropriate concentration of ATP) were set as control. Two repeats were set for each concentration. The above reaction system was incubated at 30° C. for 1.5 hours. […] 2.5 μL of the diluted mixture was added to each well and the system was incubated at 30° C. for another 1 hour. […] The substrate phosphorylation rate was obtained by calculating the ratio, and the activity of the kinase and the effect of the inhibitor on the kinase was further calculated. Every experiment was repeated at least three times.

JAK2 = JAK2 (Homo sapiens (Human), UniProt O60674); assay: Z′-Lyte kinase inhibitory activity test; format: biochemical; conditions: ATP concentration Km
Protocol: as §5

JAK3 = JAK3 (Homo sapiens (Human), UniProt P52333); assay: Z′-Lyte kinase inhibitory activity test; format: biochemical
Protocol: as §5

TYK2 = TYK2 (Homo sapiens (Human), UniProt P29597); assay: Z′-Lyte kinase inhibitory activity test; format: biochemical; conditions: ATP concentration Km
Protocol: as §5

JAK3, sequence (P52333 whole entry): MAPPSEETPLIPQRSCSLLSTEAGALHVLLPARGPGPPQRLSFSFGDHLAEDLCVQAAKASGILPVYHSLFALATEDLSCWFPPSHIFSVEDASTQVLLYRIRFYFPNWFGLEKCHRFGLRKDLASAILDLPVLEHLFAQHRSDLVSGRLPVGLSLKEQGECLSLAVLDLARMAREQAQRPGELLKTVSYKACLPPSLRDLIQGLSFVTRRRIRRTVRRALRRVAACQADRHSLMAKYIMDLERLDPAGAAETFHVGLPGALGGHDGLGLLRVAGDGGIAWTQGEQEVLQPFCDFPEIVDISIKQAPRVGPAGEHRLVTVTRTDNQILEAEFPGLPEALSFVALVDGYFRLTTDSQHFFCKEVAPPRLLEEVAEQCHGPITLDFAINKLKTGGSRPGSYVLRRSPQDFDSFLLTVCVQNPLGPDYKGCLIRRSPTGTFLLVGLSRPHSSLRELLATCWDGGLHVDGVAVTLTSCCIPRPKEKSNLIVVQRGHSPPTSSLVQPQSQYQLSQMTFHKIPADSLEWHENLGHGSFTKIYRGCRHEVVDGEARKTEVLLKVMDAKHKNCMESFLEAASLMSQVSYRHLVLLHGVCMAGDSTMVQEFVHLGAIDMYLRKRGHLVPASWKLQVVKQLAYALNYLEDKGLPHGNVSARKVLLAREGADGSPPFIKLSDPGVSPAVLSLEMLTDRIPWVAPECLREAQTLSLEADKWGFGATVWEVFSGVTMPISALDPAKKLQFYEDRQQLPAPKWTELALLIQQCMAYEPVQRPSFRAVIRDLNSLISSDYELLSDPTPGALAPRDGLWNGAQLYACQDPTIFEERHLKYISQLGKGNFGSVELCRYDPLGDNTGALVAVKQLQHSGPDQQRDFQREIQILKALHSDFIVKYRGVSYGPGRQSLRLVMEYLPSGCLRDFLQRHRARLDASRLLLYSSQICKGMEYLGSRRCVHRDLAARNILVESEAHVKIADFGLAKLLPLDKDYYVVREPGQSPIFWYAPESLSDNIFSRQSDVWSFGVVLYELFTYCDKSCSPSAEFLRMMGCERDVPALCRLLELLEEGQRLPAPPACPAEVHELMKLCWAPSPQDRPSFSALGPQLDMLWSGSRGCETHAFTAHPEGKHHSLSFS
JAK1, sequence (P23458 whole entry): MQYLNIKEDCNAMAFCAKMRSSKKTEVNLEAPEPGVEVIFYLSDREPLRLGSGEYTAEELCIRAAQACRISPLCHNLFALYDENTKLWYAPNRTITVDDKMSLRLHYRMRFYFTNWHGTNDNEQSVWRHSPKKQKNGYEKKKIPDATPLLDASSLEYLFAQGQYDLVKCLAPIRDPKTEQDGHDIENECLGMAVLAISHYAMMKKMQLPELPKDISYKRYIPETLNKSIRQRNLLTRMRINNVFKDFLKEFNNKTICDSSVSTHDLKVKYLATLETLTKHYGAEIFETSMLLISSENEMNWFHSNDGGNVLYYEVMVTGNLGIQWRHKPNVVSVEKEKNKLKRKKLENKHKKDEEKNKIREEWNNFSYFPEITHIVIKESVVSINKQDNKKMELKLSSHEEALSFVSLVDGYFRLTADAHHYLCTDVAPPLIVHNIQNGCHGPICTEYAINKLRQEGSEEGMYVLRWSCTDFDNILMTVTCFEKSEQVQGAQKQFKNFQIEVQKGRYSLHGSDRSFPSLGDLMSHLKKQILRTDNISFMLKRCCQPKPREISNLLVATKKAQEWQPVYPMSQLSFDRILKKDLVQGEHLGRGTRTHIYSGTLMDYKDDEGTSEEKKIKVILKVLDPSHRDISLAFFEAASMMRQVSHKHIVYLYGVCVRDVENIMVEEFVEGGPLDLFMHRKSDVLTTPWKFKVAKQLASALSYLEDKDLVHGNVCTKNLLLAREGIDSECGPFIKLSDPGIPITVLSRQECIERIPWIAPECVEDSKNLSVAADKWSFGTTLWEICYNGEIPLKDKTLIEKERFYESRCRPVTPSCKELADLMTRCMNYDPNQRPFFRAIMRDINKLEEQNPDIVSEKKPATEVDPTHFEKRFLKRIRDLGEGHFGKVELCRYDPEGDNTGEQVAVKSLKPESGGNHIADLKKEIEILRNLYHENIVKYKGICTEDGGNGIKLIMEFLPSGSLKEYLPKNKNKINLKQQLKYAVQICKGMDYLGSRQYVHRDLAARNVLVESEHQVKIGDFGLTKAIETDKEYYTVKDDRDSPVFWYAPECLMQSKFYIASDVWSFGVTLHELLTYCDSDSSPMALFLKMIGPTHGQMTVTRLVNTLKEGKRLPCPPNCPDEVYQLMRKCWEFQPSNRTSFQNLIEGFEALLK
JAK2, sequence (O60674 whole entry): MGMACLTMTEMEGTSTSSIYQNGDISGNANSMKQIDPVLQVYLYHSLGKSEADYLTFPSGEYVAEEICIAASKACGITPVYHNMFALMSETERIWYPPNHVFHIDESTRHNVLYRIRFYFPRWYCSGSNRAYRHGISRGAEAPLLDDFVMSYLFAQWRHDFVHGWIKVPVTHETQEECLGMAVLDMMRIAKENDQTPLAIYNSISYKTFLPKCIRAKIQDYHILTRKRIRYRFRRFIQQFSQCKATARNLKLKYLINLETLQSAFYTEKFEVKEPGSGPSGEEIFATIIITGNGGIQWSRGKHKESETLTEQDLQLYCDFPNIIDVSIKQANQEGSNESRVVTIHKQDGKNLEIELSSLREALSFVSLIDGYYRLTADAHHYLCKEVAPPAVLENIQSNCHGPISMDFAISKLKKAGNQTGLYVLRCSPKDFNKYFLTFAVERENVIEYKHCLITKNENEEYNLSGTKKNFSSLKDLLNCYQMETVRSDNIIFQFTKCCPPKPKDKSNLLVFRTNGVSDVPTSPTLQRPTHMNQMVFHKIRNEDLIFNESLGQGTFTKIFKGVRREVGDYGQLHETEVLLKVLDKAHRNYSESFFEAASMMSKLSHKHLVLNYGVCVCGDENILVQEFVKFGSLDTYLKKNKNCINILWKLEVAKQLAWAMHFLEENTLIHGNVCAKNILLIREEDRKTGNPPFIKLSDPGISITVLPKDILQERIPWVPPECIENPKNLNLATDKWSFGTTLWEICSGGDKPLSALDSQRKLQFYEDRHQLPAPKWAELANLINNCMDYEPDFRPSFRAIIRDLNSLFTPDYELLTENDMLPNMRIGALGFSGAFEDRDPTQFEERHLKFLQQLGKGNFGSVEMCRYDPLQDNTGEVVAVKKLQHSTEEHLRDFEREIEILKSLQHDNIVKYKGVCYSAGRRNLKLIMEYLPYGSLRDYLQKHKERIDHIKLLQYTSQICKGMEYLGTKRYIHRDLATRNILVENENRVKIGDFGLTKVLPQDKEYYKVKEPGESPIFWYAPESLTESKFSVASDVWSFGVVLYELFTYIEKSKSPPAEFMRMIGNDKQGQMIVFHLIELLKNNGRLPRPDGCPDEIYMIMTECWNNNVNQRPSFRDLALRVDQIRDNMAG
TYK2, sequence (P29597 whole entry): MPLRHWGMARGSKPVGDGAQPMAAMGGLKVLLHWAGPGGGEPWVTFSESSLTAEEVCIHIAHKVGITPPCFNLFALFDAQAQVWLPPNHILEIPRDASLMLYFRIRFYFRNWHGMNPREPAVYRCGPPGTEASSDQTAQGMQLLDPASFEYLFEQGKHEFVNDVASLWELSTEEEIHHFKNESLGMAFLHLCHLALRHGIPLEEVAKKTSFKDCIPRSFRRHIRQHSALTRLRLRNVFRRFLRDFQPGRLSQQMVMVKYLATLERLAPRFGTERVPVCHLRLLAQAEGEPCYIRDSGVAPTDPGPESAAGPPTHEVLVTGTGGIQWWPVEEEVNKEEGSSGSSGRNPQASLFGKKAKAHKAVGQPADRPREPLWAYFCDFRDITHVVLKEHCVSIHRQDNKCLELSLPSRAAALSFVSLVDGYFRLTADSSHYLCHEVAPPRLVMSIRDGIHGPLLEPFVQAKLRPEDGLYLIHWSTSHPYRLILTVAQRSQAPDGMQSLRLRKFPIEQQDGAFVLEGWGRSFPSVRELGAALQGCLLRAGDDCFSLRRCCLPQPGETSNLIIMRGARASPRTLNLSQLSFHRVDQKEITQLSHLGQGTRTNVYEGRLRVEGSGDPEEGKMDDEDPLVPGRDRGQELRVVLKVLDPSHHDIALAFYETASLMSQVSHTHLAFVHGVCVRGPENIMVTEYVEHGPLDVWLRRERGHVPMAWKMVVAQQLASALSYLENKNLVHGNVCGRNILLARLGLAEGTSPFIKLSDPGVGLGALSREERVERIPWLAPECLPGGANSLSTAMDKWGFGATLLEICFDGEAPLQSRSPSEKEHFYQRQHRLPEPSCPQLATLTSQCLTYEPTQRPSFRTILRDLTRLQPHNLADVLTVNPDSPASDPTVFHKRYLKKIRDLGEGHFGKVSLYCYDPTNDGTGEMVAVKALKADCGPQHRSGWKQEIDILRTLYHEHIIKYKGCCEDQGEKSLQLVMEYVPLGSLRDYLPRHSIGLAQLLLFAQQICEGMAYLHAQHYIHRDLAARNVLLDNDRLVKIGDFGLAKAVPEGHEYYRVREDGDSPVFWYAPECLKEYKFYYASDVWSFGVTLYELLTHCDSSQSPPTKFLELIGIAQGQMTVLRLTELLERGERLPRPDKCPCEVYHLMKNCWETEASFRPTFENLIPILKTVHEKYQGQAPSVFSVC

- Remaining percentage ([1]; 0 min): 100.00%
- Remaining percentage ([1]; 5 min): 75.87%
- Remaining percentage ([1]; 15 min): 42.60%
- Remaining percentage ([1]; 30 min): 29.98%
- Remaining percentage ([1]; 45 min): 17.88%
- CLint scaled at 1 µM ([1]; rat, liver microsomes, pH 7.4, rat liver microsomes, read-out: Clint): 133 mL/min/kg
- half-life at 1 µM ([1]; rat, liver microsomes, pH 7.4, rat liver microsomes, read-out: T1/2): 18.7 min
Compound: O=C(c1ccc(F)cc1)C1CCN(CCn2c(=O)[nH]c3ccccc3c2=O)CC1 [ketanserin, reference compound]

- IC50 [2]: > 30 µM
- IC50 ([3]; 72 hours): > 30 µM
- IC50 ([4]; 72 hours): 0.0195 µM
- IC50 ([5]; 72 hours): > 30 µM
Compound: C=CC(=O)N1C[C@H](Nc2ncnc3[nH]ccc23)CC[C@@H]1C [PF-06651600, reference compound]
- IC50 [6]: > 10 µM

- IC50 (JAK1): 1.73 µM
- IC50 (JAK2): 1.63 µM
- IC50 (JAK3; ATP concentration 1 mM): 4.94 µM
- IC50 (JAK3; ATP concentration Km): 0.0724 µM
- IC50 (TYK2): 0.312 µM
- IC50 ([2]; Homo sapiens, Jurkat): 2.25 µM
- IC50 ([3]; Homo sapiens, HuT78, 72 hours): 0.476 µM
- IC50 ([4]; Homo sapiens, U-937, 72 hours): 0.246 µM
- IC50 ([5]; Homo sapiens, K562, 72 hours): 0.117 µM
Compound: C=C(C)C(=O)Nc1cc(Nc2ncc(Cl)c(O[C@@H]3CO[C@H]4[C@@H]3OC[C@H]4O)n2)ccc1N1CCC(N2CCN(C)CC2)CC1 [LS 5-73]

— US20230348487A1, “2-AMINOPYRIMIDINE COMPOUND AND PHARMACEUTICAL COMPOSITION THEREOF AND APPLICATION THEREOF” (GUANGZHOU SALUSTIER BIOSCIENCES CO., LTD., priority 2021, published 2023)
